Reference: patent US20260293896A1, “PLANT GROWTH REGULATOR, PLANT GROWTH ACCELERATION METHOD, OR PLANT GROWTH-REGULATING PRODUCT” (KUREHA CORPORATION, priority 2022, published 2026)

System: rapeseed
Assay: Evaluation Example 5: Comparison of Elongated Plant Height of Rapeseed
Format: in vivo
Settings: petri dish, 5 mL, 25° C, 7th day after seeding, EGT 0.5 mM and/or component (A) 0.5 mM
Procedure: The plant growth regulators of Examples 9 to 13 and Comparative Examples 13 to 18 were prepared so as to attain the concentrations indicated in Table 5 below. EGT, Gln, Trp, Met, Phe and acetic acid were commercially available products, and pure water was used as a solvent.
(§1) Into a 9 cm petri dish on which filter paper was spread, 5 mL of the plant growth regulator was added. Ten seeds of rapeseed were sown per one petri dish. In a growth chamber set at room temperature of 25° C., the light period was 16 hours and the dark period was 8 hours. The light conditions were set such that the light intensity was 5000 lx in the central part under irradiation with the fluorescent lamp.
(§2) The plant height of the rapeseed on the 7th day after seeding was evaluated.

Question: For N[C@@H](Cc1ccccc1)C(=O)O [compound 17, L-phenylalanine], which “Elongated plant height, ratio to untreated control” value (“Elongated plant height, ratio” below) is on record?
Answer: 1.1

Question: With CSCC[C@H](N)C(=O)O [compound 16, L-methionine] as the molecule, how does the “Elongated plant height, ratio” value read?
Answer: 1.0

Question: With NC(=O)CC[C@H](N)C(=O)O [compound 14, L-glutamine] as the molecule, how does the “Elongated plant height, ratio” value read?
Answer: 1.1

Question: For C[N+](C)(C)[C@@H](Cc1c[nH]c(=S)[nH]1)C(=O)[O-] [Comparative Example 13, L-(+)-ergothioneine], which “Elongated plant height, ratio” value is on record?
Answer: 1.1

Question: CC(=O)O [compound 18, acetic acid] was tested. Which “Elongated plant height, ratio” value did it give?
Answer: 1.1

Question: Which “Elongated plant height, ratio” value does the source give for N[C@@H](Cc1c[nH]c2ccccc12)C(=O)O [compound 15, L-tryptophan] here?
Answer: 0.5

System: rapeseed
Assay: Evaluation Example 6: Comparison of Elongated Plant Height of Rapeseed
Format: in vivo
Settings: petri dish, 5 mL, 25° C, 7th day after seeding, EGT 0.5 mM and/or component (A) 0.5 mM
Procedure: The plant growth regulators of Examples 14 to 17 and Comparative Examples 19 to 23 were prepared so as to attain the concentrations indicated in Table 6 below. EGT, Leu, Val, Tyr and Ser were commercially available products, and pure water was used as a solvent.
as §1, §2

Question: Which “Elongated plant height, ratio” value does the source give for N[C@@H](Cc1ccc(O)cc1)C(=O)O [compound 22, L-tyrosine] here?
Answer: 1.0

Question: With CC(C)C[C@H](N)C(=O)O [compound 20, L-leucine] as the molecule, how does the “Elongated plant height, ratio” value read?
Answer: 1.0

Question: With CC(C)[C@H](N)C(=O)O [compound 21, L-valine] as the molecule, how does the “Elongated plant height, ratio” value read?
Answer: 1.0

Question: Which “Elongated plant height, ratio” value does the source give for C[N+](C)(C)[C@@H](Cc1c[nH]c(=S)[nH]1)C(=O)[O-] [Comparative Example 19, L-(+)-ergothioneine] here?
Answer: 1.1

Question: N[C@@H](CO)C(=O)O [compound 23, L-serine] was tested. Which “Elongated plant height, ratio” value did it give?
Answer: 1.0

System: wheat
Assay: Evaluation Example 10: Comparison of Elongated Plant Height of Wheat
Format: in vivo
Settings: petri dish, 5 mL, 24° C, 7th day after seeding, EGT 0.5 mM and/or component (A) 0.5 mM
Procedure: The plant growth regulators of Examples 23 to 26 and Comparative Examples 32 to 36 were prepared so as to attain the concentrations indicated in Table 10 below. EGT, GABA, ornithine, carnitine and maleic acid were commercially available products, and pure water was used as a solvent.
(§3) Into a 9 cm petri dish on which filter paper was spread, 5 mL of the plant growth regulator was added. Ten seeds of wheat were sown per one petri dish. In a thermostatic chamber set at room temperature of 24° C., the light period was 16 hours and the dark period was 8 hours. The light conditions were set using a fluorescent lamp (PLANT FLEC, 40 W LED fluorescent lamp for plant growth, electric bulb color, available from Nippon Medical and Chemical Instruments Co., Ltd.) such that the light intensity was 5000 lx in the central part under irradiation with the fluorescent lamp.
(§4) The plant height of the wheat on the 7th day after seeding was evaluated.

Question: Which “Elongated plant height, ratio” value does the source give for C[N+](C)(C)CC(O)CC(=O)[O-] (centres unmarked) [compound 35, carnitine] here?
Answer: 0.9

Question: How did the “Elongated plant height, ratio” value turn out when C[N+](C)(C)[C@@H](Cc1c[nH]c(=S)[nH]1)C(=O)[O-] [Comparative Example 32, L-(+)-ergothioneine] was run?
Answer: 1.1

Question: Which “Elongated plant height, ratio” value does the source give for NCCC[C@H](N)C(=O)O [compound 34, ornithine] here?
Answer: 0.9

Question: With O=C(O)/C=C\C(=O)O [compound 36, maleic acid] as the molecule, how does the “Elongated plant height, ratio” value read?
Answer: 0.9

Question: For NCCCC(=O)O [compound 33, γ-aminobutyric acid], which “Elongated plant height, ratio” value is on record?
Answer: 1.0

System: wheat
Assay: Evaluation Example 11: Comparison of Elongated Plant Height of Wheat
Format: in vivo
Settings: petri dish, 5 mL, 24° C, 7th day after seeding, EGT 0.5 mM and/or component (A) 0.1 mM (vitamin D2 0.01 mM)
Procedure: The plant growth regulators of Examples 27 to 31 and Comparative Examples 37 to 42 were prepared so as to attain the concentrations indicated in Table 11 below. EGT, Met, His, Cys, 5-ALA and vitamin D2 were commercially available products, and pure water was used as a solvent.
as §3, §4

Question: C=C1CC[C@H](O)C/C1=C/C=C1\CCC[C@]2(C)[C@@H]([C@H](C)/C=C/[C@H](C)C(C)C)CC[C@@H]12 [compound 42, vitamin D2] was tested. Which “Elongated plant height, ratio” value did it give?
Answer: 0.9

Question: With CSCC[C@H](N)C(=O)O [compound 38, L-methionine] as the molecule, how does the “Elongated plant height, ratio” value read?
Answer: 0.8

Question: NCC(=O)CCC(=O)O [compound 41, 5-aminolevulinic acid] was tested. Which “Elongated plant height, ratio” value did it give?
Answer: 0.9

Question: With N[C@@H](Cc1c[nH]cn1)C(=O)O [compound 39, L-histidine] as the molecule, how does the “Elongated plant height, ratio” value read?
Answer: 1.0

Question: C[N+](C)(C)[C@@H](Cc1c[nH]c(=S)[nH]1)C(=O)[O-] [Comparative Example 37, L-(+)-ergothioneine] was tested. Which “Elongated plant height, ratio” value did it give?
Answer: 1.1

Question: How did the “Elongated plant height, ratio” value turn out when N[C@@H](CS)C(=O)O [compound 40, L-cysteine] was run?
Answer: 1.0

System: radish (Akamaru Hatsuka)
Assay: Evaluation Example 13: Comparison of Aboveground Part Weight and Underground Part Weight of Radish
Format: in vivo
Settings: 50 mL on 15th, 17th, 20th days, evaluated 27th day after seeding, EGT 0.5 mM and/or Glu 0.5 mM
Procedure: The plant growth regulators of Example 34 and Comparative Examples 46 and 47 were prepared so as to attain the concentrations indicated in Table 13 below. EGT and Glu were commercially available products, and pure water was used as a solvent.
In a plastic pot having a diameter of 105 mm and a height of 90 mm, 450 g of granular soil (Kumiai horticultural soil) was placed, and one individual radish (Akamaru Hatsuka) was sown per one pot.
The radish was managed in a greenhouse set at room temperature of 25° C. Chemical treatment was started 2 weeks after seeding. More specifically, on the 15th, 17th, and 20th days after seeding, 50 mL of the plant growth regulator was added.
On the 27th day after seeding, the aboveground part weight and underground part weight were evaluated.

Question: What does the source list for N[C@@H](CCC(=O)O)C(=O)O [Comparative Example 47, L-glutamic acid]?
Answer: Aboveground part weight, ratio to untreated control: 1.1; Underground part weight, ratio to untreated control: 1.1

Question: C[N+](C)(C)[C@@H](Cc1c[nH]c(=S)[nH]1)C(=O)[O-] [Comparative Example 46, L-(+)-ergothioneine] was tested. Which “Aboveground part weight, ratio to untreated control” value did it give?
Answer: 1.1

Question: What about the “Underground part weight, ratio to untreated control” value of the same molecule?
Answer: 1.1
